Results reported in article PMC10436262, “Structure-Based Design of Inhibitors of the m^6A-RNA Writer Enzyme METTL3” (ACS Bio & Med Chem Au, 2023).
Values belong to the molecule of their own block, whether it stands above or below them.

Columns and labels:
METTL1 = METTL1 (Homo sapiens, UniProt Q9UBP6); experiment: Thermal shift assay; assay type: binding
Procedure: (§1) METTL1 mediates the formation of N7-methylguanine in a subset of RNA species, such as tRNAs, mRNAs, and microRNAs, whereas METTL16 is able to N6-methylate a subset of mRNAs and U6 small nuclear RNAs.[23],[24] The co-product of methyl transfer catalysis, S-adenosyl-L-homocysteine (SAH), was used as a positive control in the thermal shift assay. […] Compound 54 at 200 μM was able to shift the melting curve of METTL3/METTL14 by 1.8 °C compared to the DMSO control (Figure S4).
(§2) The protein sample was buffered in 25 mM HEPES (pH 7.4) and 150 mM NaCl and assayed in a 96-well plate at a final concentration of 2 μM in 20 μL volume. The SYPRO Orange dye was added as a fluorescence probe at a dilution of 1:1000. The compound 54 concentrations tested were 10, 50, 100, and 200 μM, while the SAH concentrations tested were 100, 500, 1000, and 2000 μM. The temperature was raised with a step of 0.5 °C starting from 20 to 80 °C, and fluorescence readings were taken at each interval. The reported values (ΔTm) are calculated as the difference between the transition midpoints of an individual sample and the average of the reference wells (containing the protein and the DMSO only) in the same plate. The DMSO concentration was kept at 1% (v/v).

METTL16 = molecular target: T1, METTL16 (Homo sapiens, UniProt Q86W50); experiment: Thermal shift assay; assay type: binding
T1 sequence (Q86W50 1-562): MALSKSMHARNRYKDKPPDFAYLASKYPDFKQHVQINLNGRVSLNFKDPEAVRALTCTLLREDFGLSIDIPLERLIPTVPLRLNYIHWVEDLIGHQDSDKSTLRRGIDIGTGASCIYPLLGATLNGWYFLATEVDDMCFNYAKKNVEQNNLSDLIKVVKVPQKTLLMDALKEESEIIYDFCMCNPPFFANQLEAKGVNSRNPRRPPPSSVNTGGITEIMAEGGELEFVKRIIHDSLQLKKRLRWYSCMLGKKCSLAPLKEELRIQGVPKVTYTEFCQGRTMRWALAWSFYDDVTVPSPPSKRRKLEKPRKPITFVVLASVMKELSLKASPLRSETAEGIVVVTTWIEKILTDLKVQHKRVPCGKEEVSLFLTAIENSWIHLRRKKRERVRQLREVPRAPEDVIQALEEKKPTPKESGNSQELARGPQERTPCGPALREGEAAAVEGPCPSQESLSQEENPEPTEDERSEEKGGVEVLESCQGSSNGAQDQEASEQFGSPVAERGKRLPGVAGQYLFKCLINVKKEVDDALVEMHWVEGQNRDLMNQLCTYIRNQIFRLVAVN
Procedure: as §1, §2

METTL3/METTL14 [1] = molecular target: T2, METTL3/METTL14 (Homo sapiens, UniProt Q86U44); experiment: Thermal shift assay; assay type: binding; settings: vs DMSO control
T2 construct: made in house; host or cells: Sf9 insect cells (baculovirus)
Procedure: as §1, §2

[2] = system: m^6A/A level in MOLM-13 cells; parameters: method as in PMID 34237194; settings: read-out: IC50 for m^6A/A reduction; cited from earlier work
METTL3/METTL14 [3] = molecular target: T2, METTL3/METTL14; experiment: METTL3 enzymatic inhibition assay by homogeneous time-resolved fluorescence (HTRF); assay type: biochemical; settings: for IC50: HTRF assay, racemic mixture, read-out: IC50
Procedure: Compound potencies were evaluated by using a previously reported METTL3 inhibition assay. […] Tested compounds that inhibit METTL3 decrease the m^6A level and thus reduce the HTRF signal. The biochemical assay was performed, as described previously.[19] The IC50 values derived from fitting a dose–response curve to the data using nonlinear regression. The IC50 values are given as an average of at least two independent measurements for each compound in the text.

MOLM-13 cells = experiment: Antiproliferative activity / cytotoxicity (GI50), CellTiter-Glo; assay type: cell-based
Procedure: We then decided to evaluate the cellular potency of inhibitor 54. The antiproliferative activity on MOLM-13, which is an acute myeloid leukemia cell line, was measured using a previously published protocol with a 3-day incubation time.[10]
MOLM-13 cells were cultured in RPMI 1640 medium containing 10% Gibco FBS and 1% penicillin/streptomycin (complete medium) in 5% CO2 at 37 °C in a humidified incubator, with maintained cell densities at 0.6–2 × 10^6 cells/mL.
Cells were seeded in white clear-bottom 96-well plates at a density of 2 × 10^4 cells/well in 50 μL of the complete RPMI medium and treated with 50 μL increasing concentrations of compound 54 dissolved in DMSO (final concentration of compounds 1.25–160 μM) or DMSO only (0.5% (v/v)) as a negative control and incubated for 72 h at 37 °C with 5% CO2. Cell viability was determined using a CellTiter-Glo luminescent cell viability assay (Promega G7570) based on the detection of ATP according to the manufacturer’s instructions. […] The luminescence was recorded using a Tecan Infinite […] M1000 microplate reader from the top. The background luminescence value was obtained from wells containing the CellTiter-Glo reagent and medium without cells. Cell viability curves were plotted in GraphPad Prism 9 and fitted with nonlinear regression, from which GI50 values were determined.

[4] = SAH at 2000 μM, vs DMSO control

T2 sequence (Q86U44 whole entry): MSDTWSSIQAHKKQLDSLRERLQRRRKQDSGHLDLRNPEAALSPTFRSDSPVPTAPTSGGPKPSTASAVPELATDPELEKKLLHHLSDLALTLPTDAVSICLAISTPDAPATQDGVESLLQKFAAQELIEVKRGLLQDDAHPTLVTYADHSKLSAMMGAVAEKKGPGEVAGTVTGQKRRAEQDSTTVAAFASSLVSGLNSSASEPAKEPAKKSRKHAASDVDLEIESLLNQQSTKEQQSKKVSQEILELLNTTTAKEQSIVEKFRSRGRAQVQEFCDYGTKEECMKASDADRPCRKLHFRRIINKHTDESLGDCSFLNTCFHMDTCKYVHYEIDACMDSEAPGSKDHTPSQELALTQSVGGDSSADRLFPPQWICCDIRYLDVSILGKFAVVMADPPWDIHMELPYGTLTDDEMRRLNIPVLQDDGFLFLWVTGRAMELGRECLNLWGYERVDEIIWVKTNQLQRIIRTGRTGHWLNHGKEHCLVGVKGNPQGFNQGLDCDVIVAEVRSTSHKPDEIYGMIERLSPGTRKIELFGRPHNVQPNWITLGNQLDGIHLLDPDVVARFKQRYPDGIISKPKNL
T2 sequence (Q9HCE5 whole entry partner): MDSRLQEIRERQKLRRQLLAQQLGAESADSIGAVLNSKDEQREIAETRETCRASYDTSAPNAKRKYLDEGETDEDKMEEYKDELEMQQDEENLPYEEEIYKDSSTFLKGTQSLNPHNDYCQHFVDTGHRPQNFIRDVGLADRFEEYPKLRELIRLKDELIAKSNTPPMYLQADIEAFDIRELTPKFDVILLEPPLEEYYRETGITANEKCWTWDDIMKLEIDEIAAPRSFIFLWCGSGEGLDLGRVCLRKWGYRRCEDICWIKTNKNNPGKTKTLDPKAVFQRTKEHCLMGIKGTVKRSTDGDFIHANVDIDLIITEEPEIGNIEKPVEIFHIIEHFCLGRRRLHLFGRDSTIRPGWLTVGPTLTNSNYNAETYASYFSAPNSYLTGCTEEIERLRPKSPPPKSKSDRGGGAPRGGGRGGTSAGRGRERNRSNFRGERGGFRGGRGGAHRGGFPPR
Sequence of METTL1 (Q9UBP6 whole entry, species assumed): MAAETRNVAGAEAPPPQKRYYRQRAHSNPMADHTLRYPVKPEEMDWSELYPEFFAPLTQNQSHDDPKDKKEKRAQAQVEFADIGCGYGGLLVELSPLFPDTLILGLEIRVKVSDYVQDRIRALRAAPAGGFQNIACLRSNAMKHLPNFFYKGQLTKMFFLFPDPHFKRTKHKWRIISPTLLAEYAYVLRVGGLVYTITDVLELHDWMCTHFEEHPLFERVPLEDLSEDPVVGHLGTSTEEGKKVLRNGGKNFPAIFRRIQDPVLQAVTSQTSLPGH

Compound: Nc1ncnc2c1ncn2[C@@H]1O[C@H](CSCC[C@H](N)C(=O)O)[C@@H](O)[C@H]1O [SAH, S-adenosyl-L-homocysteine, reference compound]
ΔTm (METTL1; [4]): 8.75 °C
ΔTm (METTL16; [4]): 2.5 °C
ΔTm (METTL3/METTL14 [1]; SAH at 2000 μM): 4.05 °C

Compound: CC1(C)CCN(Cc2ccc(C(=O)NC[C@]3(O)CCCN(c4cc(NCc5ccccc5)ncn4)C3)c(O)c2)CC1 [UZH1a]
IC50 [2]: 4600 nM

IC50 (METTL3/METTL14 [3]): 840 nM
Compound: O=C(NCC1(O)CCCN(c2cc(NCc3ccccc3)ncn2)C1)c1ccc(CN2CC3(CCC3)C2C2CC2)cc1O (stereo not drawn) [compound 53]

Compound: CC(C)C1N(Cc2ccc3c(NCC4(O)CCCN(c5cc(NCc6ccccc6)ncn5)C4)cccc3c2)CC12CCC2 (stereo not drawn) [compound 54, 1-(6-(benzylamino)pyrimidin-4-yl)-3-(((6-((1-isopropyl-2-azaspiro[3.3]heptan-2-yl)methyl)naphthalen-1-yl)amino)methyl)piperidin-3-ol]
IC50 (METTL3/METTL14 [3]): 54 nM
fold improvement in affinity (IC50) vs compound 46 (METTL3/METTL14 [3]; matched pair 46:54): 6.7 fold
GI50 (MOLM-13 cells; Homo sapiens, MOLM-13, 3-day (72 h) incubation, average of two biological replicates): 6000 nM
factor by which cellular GI50 is higher than biochemical IC50 (MOLM-13 cells; MOLM-13 GI50 vs HTRF IC50): about 100
ΔTm (shift of melting curve) (METTL1; compound up to 200 μM): No shift
ΔTm (shift of melting curve) (METTL16; compound up to 200 μM): No shift
ΔTm at 200 µM (METTL3/METTL14 [1]; compound at 200 μM, read-out: ΔTm (shift of melting curve)): 1.8 °C
